Measurements published in patent US20250108038A1 (priority 2023, published 2025).
Read-outs that look alike come from different tables or passages of the source.

Experiments:
[1] = tested on: orexin/tTA; Tet-O diphtheria toxin A mice (DTA mice); type: in vivo, mouse; conditions: 6 h after dosing at ZT12; for cataplexy (C) time: Compound I-19 0.3, 1, 3 mg/kg i.p., Compound I-4 0.3, 1, 3 mg/kg p.o., Des 5 mg/kg p.o.
Wistar rats = type: in vivo, Wistar rat
Protocol: Animals were trained in eight automated 5C-SRTT operant chambers (Med Associates, St. Albans, VT, USA), controlled by MedPC software (Med Associates). Briefly, each operant chamber was equipped with 5 apertures containing a photocell beam to detect nose pokes and a lamp (2.8 W) that could be illuminated randomly at varying durations. Food pellets (45 mg chow pellet, BioServ, Frenchtown, NJ, USA) were delivered automatically to a magazine, located on the opposite wall to the nose pokes, that was also equipped with a light that turned on to indicate that a pellet had been dispensed. The house-light remained on for the entire session unless an error or omission occurred. Training sessions began with the delivery of a food reward and retrieval triggered the first trial. […] Training began with the stimulus duration set at 10 sec, a limited hold period of 5 sec and an ITI of 5 sec. […] Sessions ended when 40 minutes had lapsed or 100 trials had been completed.
Upon meeting the performance criteria, animals were assessed in the vSD version of the task where the following stimulus durations were presented in a pseudorandom manner: 0.3, 0.6 and 0.9 sec. Later, subjects were assessed in the vITI version where 2.5, 5.0 and 10.0 sec ITIs were employed in a pseudorandom manner. Performance parameters measured were: % hit ((# correct/(# correct+# incorrect including omissions))×100); % correct ((# correct/(# correct+# incorrect excluding omissions))×100); premature responses (# of nose-pokes into any aperture after trial initiation but before onset of the stimulus light); timeout responses (# of nose pokes into any aperture during a timeout period), perseverative responses (# of nose pokes occurring after the correct response had been made but before reward collection); # of food magazine head entries, omissions and total trials completed. The latency to correct response (time taken from the onset of the nose poke light stimulus to making the correct nose poke response), latency to incorrect response (time taken from onset of nose poke light stimulus to making the incorrect nose poke response), and latency to reward (i.e., the magazine latency, time taken from making a correct nose poke response to retrieving the reward from the magazine) was also recorded.
Drug doses and vehicle were administered in a pseudorandom fashion. Drug or vehicle sessions were performed 1-2 times per week with maintenance training (behavioral testing without drug or vehicle injections) interspersed.
All data were collated and entered into Microsoft Excel spreadsheets. The data were subsequently imported into StatView 5.0 for statistical analyses. One and two factor analysis of variance (ANOVA) tests were used with repeated measures when indicated, followed by Fisher LSD or Student Newman Keuls as post-hoc tests. All results were expressed as the mean (±S.E.M.). Differences between means from experimental groups were considered significant at the p<0.05 level. The statistical F values and degrees of freedom associated with the two factor ANOVA analyses are provided in the text of this report. Please refer to the statistical reports in the appendices for the values associated with one factor ANOVAs for the overall means and overall total values.

human red blood cells = assay: Hemolysis study in human blood; type: cell-based; conditions: 60 min, 37° C.
Protocol: (§1) FIG. 4A. […] Compound I-19 in human blood. Red blood cells were isolated from whole blood and resuspended in PBS. […] (final concentrations 25, 50, and 100 μM) and the mixtures were incubated at 37° C. for 60 min. After the incubation, the samples were centrifuged and the absorbance of 100 μL of supernatant was read at 410 nm. % RBC lysis is expressed relative to 100% lysis control. Values represent mean+SEM of n=3 separate experiments.
FIG. 4B. Hemolytic Potential of Compound I-4 in human blood. Red blood cells were isolated from whole blood and resuspended in PBS. 190 μL of diluted RBC suspension and 10 μL of Compound I-4 solutions were mixed at 0 min. (final concentrations 25, 50, and 100 μM) and the mixtures were incubated at 37° C. for 60 min. After the incubation, the samples were centrifuged and the absorbance of 100 μL of supernatant was read at 410 nm. % RBC lysis is expressed relative to 100% lysis control. Values represent mean+SEM of n=3 separate experiments.
(§2) FIG. 4C. Hemolytic Potential of Amphotericin B in human blood (positive assay control). Red blood cells were isolated from whole blood and resuspended in PBS. 190 μL of diluted RBC suspension and 10 μl of amphotericin B solutions were mixed at 0 min. (final concentrations 1, 10, 30, and 100 μM) and the mixtures were incubated at 37° C. for 60 min. After the incubation, the samples were centrifuged and the absorbance of 100 μL of supernatant was read at 410 nm. % RBC lysis is expressed relative to 100% lysis control. Values represent mean+SEM of n=3 separate experiments.
(§3) To a clear 96-well V-bottom polystyrene plate, the test articles (10 μL) and the diluted RBCs (190 μL) from human or rat blood were mixed for final concentrations of 25, 50, and 100 μM. The reaction mixture was incubated at 37° C. for 60 min. Following the exposure period, the plates were centrifuged. After centrifugation, 70 μL of supernatant (without disturbing the pellet) was transferred to a clean and clear polystyrene flat bottomed 96-well plate and the absorbance of the sample at a single wavelength was measured using a BioTech Synergy H1 Plate Reader at a wavelength of 410 nm. The positive control for this assay was amphotericin B test at concentrations of 1, 10, 30, and 100 μM.

rat red blood cells = assay: Hemolysis study in rat blood; type: cell-based; conditions: 60 min, 37° C.
Protocol: as §1, with “6A.” for “4A.”, “rat” for “human”
as §1, with “6B.” for “4A.”, “rat” for “human”, “μl” for “μL”
as §2, with “6C.” for “4C.”, “rat” for “human”, “μL” for “μl”
as §3

OAT3 = target: T1, OAT3 (Homo sapiens, UniProt Q8TCC7); assay: Uptake transporter inhibition assay, OAT3 (estrone-3-sulfate); conditions: for inhibition at 500 μM: human
T1 sequence (Q8TCC7 1-542): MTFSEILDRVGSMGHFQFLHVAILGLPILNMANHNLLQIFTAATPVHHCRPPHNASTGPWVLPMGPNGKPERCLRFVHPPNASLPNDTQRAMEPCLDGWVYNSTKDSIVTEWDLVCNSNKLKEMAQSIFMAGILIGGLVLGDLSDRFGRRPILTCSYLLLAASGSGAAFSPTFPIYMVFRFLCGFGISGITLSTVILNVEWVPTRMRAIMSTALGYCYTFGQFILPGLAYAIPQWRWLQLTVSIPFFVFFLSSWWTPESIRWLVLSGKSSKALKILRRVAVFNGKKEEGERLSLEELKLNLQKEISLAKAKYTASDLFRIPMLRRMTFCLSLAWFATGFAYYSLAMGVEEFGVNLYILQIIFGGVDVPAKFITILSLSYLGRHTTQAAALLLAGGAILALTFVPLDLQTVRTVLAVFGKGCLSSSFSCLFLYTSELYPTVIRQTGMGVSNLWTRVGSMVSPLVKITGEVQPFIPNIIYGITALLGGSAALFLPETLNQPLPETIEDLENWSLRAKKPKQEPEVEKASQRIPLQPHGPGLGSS
Protocol: Uptake experiments were performed using HEK293 cells stably expressing the respective uptake transporters. The assays were conducted according to the actual SOLVO uptake transporter assay protocols (PR-ASY-UPT-General Protocol for Uptake Transporter Inhibition Assays).
Cells were cultured at 37° C. in a humidified atmosphere containing 5% CO2 and were plated onto standard 96-well tissue culture plates.
Before the experiment, the medium was removed, and the cells were washed twice with 100 μL of pre-warmed (37° C.) assay buffer listed in Table 15. The cells were pre-incubated at 37° C. for 30 minutes in assay buffer containing the test article at appropriate concentrations (Table 16), appropriate solvents for solvent controls and the reference inhibitor for reference inhibitor wells. After the pre-incubation step solutions were removed. Uptake experiments were performed at 37° C. in 50 μL of assay buffer containing the probe substrate and the test article or solvent and controls.
After the experiment, cells were washed twice with 100 μL of appropriate cold buffer and lysed with 150 μL scintillation cocktail. Radiolabeled probe substrate transport was determined by liquid scintillation counting.
Uptake of the probe substrate in control cells provided background activity values for all data points.

[2] = test articles 25, 50, 100 μM, amphotericin B 1, 10, 30, 100 μM

CNCCCN1c2ccccc2CCc2ccccc21 [Desipramine, reference compound]
latency to REM (effect) [1]: increased the latency to REM onset | cataplexy (C) time [1]: decreased significantly for the first 2 h post administration but was not significant overall | cataplexy (C) time ([1]; listed as Des): decreased for the first 2 h post administration but was not significant overall | REM time ([1]; same doses): overall reduction in REM sleep did not reach significance

CN1CCCC1c1cccnc1 (stereo not shown) [nicotine, Nicotine, reference compound]
% hit rate (Wistar rats; nicotine 0.05-0.2 mg/kg sc, Compound I-4 0.1-3.0 mg/kg ip, Compound I-19 0.03-1.0 mg/kg ip): increase in the % hit rate | % correct (Wistar rats; same doses): no statistically significant effects | Magazine Head Entries (Wistar rats; same doses): increase in the number of premature responses, timeout responses, magazine head entries | Omissions (Wistar rats; same doses): decrease in omissions | number of trials completed (Wistar rats; same doses): no effect on the total number of trials completed | perseverative responses (Wistar rats; same doses): no statistically significant effects on perseverative responses or reward latencies | premature responses (Wistar rats; same doses): the higher 2 doses of nicotine were associated with an increase | response latencies (correct, incorrect) (Wistar rats; same doses): modest decrease in the response latencies associated with correct responses | reward latencies (Wistar rats; same doses): no statistically significant effects on perseverative responses or reward latencies | timeout responses (Wistar rats; same doses): increase in the number of premature responses, timeout responses, magazine head entries

C[C@@H]1[C@H](O)[C@@H](C)/C=C/C=C/C=C/C=C/C=C/C=C/C=C/[C@H](O[C@@H]2O[C@H](C)[C@@H](O)[C@H](N)[C@@H]2O)C[C@@H]2O[C@](O)(C[C@@H](O)C[C@@H](O)[C@H](O)CC[C@@H](O)C[C@@H](O)CC(=O)O[C@H]1C)C[C@H](O)[C@H]2C(=O)O [amphotericin B, reference compound]
EC50 (human red blood cells; read-out: EC50 (% RBC lysis)): 7.06 µM | % RBC lysis (hemolytic potential) (human red blood cells; [2]): dose-dependent increase in % RBC lysis | EC50 (rat red blood cells; read-out: EC50 (% RBC lysis)): 4.73 µM | % RBC lysis (hemolytic potential) (rat red blood cells; [2]): dose-dependent increase in % RBC lysis

CCCN(CCC)S(=O)(=O)c1ccc(C(=O)O)cc1 [Probenecid]
Transporter specific accumulation (OAT3; 500.00 μM nominal, E3S, Table 130): 291.67 ± 17.04 cpm | Relative transporter specific accumulation (OAT3; 500.00 μM, reference inhibitor): 1.68 ± 0.31 % of control | inhibition at 500 μM (OAT3; Relative Inhibition, 500.00 μM nominal, E3S, Table 130): 98% | inhibition at 500 μM (OAT3; Relative inhibition, 500.00 μM, reference inhibitor): 97%
